Reference: patent US20240376073A1 (Hoffmann-La Roche Inc., priority 2021, published 2024)
Structures can show the parent of a compound that is named as a salt.

Tested on: Acinetobacter baumannii ATCC17961
Assay: Antimicrobial susceptibility testing: 90% growth inhibitory concentration (IC90) determination
Assay type: cell-based
Conditions: Acinetobacter baumannii ATCC17961; Iso-Sensitest broth; growth by OD 600 nm over 16 h; 35±2° C.; read-out: ATCC 17961 IC90
Procedure: The in vitro antimicrobial activity of the compounds was determined according to the following procedure:
The assay used a 10-points Iso-Sensitest broth medium to measure quantitatively the in vitro activity of the compounds against Acinetobacter baumannii ATCC17961.
Stock compounds in DMSO were serially twofold diluted (e.g. range from 50 to 0.097 μM final concentration) in 384 wells microtiter plates and inoculated with 49 μl the bacterial suspension in Iso-Sensitest medium to have a final cell concentration of ˜5×10^(5) CFU/ml in a final volume/well of 50 ul/well. Microtiter plates were incubated at 35±2° C.
Bacterial cell growth was determined with the measurement of optical density at λ=600 nm each 20 minutes over a time course of 16 h. Growth inhibition was calculated during the logarithmic growth of the bacterial cells with determination of the concentration inhibiting 50% (IC50) and 90% (IC90) of the growth.
Table 1 provides the […] growth inhibitory concentrations (IC90) in micromoles per liter of the compounds of present invention obtained against the strain Acinetobacter baumannii ATCC17961.

SMILES	IC90 [nM]
COc1ccc(-c2cnc(C(=O)Nc3ccc(C(=O)NC4CN(C(=O)C[N+](C)(C)CC(N)=O)C4)c(Cl)c3)n2C)c(F)c1F [Example B6, (2-amino-2-oxo-ethyl)-[2-[3-[[2-chloro-4-[[5-(2,3-difluoro-4-methoxy-phenyl)-1-methyl-imidazole-2-carbonyl]amino]benzoyl]aminoJazetidin-1-yl]-2-oxo-ethyl]-dimethyl-ammonium; formate]	290
COc1ccc(-c2cnc(C(=O)Nc3ccc(C(=O)N4CCN(C(=O)C[N+](C)(C)CC(N)=O)CC4)c(Cl)c3)n2C)c(F)c1F [Example B7, (2-amino-2-oxo-ethyl)-[2-[4-[2-chloro-4-[[5-(2,3-difluoro-4-methoxy-phenyl)-1-methyl-imidazole-2-carbonyl]amino]benzoyl]piperazin-1-yl]-2-oxo-ethyl]-dimethyl-ammonium; formate]	99
COc1ccc(-c2cnc(C(=O)Nc3ccc(C(=O)N4CCN(C(=O)CC[N+](C)(C)C)CC4)c(C)c3)n2C)c(F)c1F [Example B8, [3-[4-[4-[[5-(2,3-Difluoro-4-methoxy-phenyl)-1-methyl-imidazole-2-carbonyl]amino]-2-methyl-benzoyl]piperazin-1-yl]-3-oxo-propyl]-trimethyl-ammonium;2,2,2-trifluoroacetate]	180
COc1ccc(-c2cnc(C(=O)Nc3ccc(C(=O)N4CCN(C(=O)C5CC[N+](C)(C)CC5)CC4)c(Cl)c3)n2C)c(F)c1F [Example B10, N-[3-chloro-4-[4-(1,1-dimethylpiperidin-1-ium-4-carbonyl)piperazine-1-carbonyl]phenyl]-5-(2,3-difluoro-4-methoxy-phenyl)-1-methyl-imidazole-2-carboxamide; formate]	75
Cn1c(-c2ccc(OC(F)F)cc2F)cnc1C(=O)Nc1ccc(C(=O)N2CCN(C(=O)C[N+](C)(C)C)CC2)c(Cl)c1 [Example B11, [2-[4-[2-chloro-4-[5-[4-(difluoromethoxy)-2-fluoro-phenyl]-1-methyl-imidazole-2-carbonyl]amino]benzoyl]piperazin-1-yl]-2-oxo-ethyl]-trimethyl-ammonium; formate]	150
Cn1c(-c2ccc(OC(F)F)c(F)c2F)cnc1C(=O)Nc1ccc(C(=O)N2CCN(C(=O)C[N+](C)(C)C)CC2)c(Cl)c1 [Example B12, [2-[4-[2-chloro-4-[[5-[4-(difluoromethoxy)-2,3-difluoro-phenyl]-1-methyl-imidazole-2-carbonyl]amino]benzoyl]piperazin-1-yl]-2-oxo-ethyl]-trimethyl-ammonium; formate]	51
Cn1c(-c2ccc(OC(F)F)c(F)c2F)cnc1C(=O)Nc1ccc(C(=O)N2CCN(C(=O)C3CCN(C(=O)C[N+](C)(C)C)CC3)CC2)c(Cl)c1 [Example B14, [2-[4-[4-[2-chloro-4-[[5-[4-(difluoromethoxy)-2,3-difluoro-phenyl]-1-methyl-imidazole-2-carbonyl]amino]benzoyl]piperazine-1-carbonyl]-1-piperidyl]-2-oxo-ethyl]-trimethyl-ammonium; formate]	76
COc1ccc(-c2cnc(C(=O)Nc3ccc(C(=O)N4CCN(C(=O)C5CN(C(=O)C[N+](C)(C)C)C5)CC4)c(Cl)c3)n2C)c(F)c1F [Example B16, [2-[3-[4-[2-chloro-4-[[5-(2,3-difluoro-4-methoxy-phenyl)-1-methyl-imidazole-2-carbonyl]amino]benzoyl]piperazine-1-carbonyl]azetidin-1yl]-2-oxo-ethyl]-trimethyl-ammonium; formate]	230
COc1ccc(-c2cnc(C(=O)Nc3ccc(C(=O)N4CC(NC(=O)C5CC[N+](C)(C)CC5)C4)c(Cl)c3)n2C)c(F)c1F [Example B17, N-[1-[2-chloro-4-[[5-(2,3-difluoro-4-methoxy-phenyl)-1-methyl-imidazole-2-carbonyl]amino]benzoyl]azetidin-3-yl]-1,1-dimethyl-piperidin-1-ium-4-carboxamide; formate]	250
COc1ccc(-c2cnc(C(=O)Nc3ccc(C(=O)N4C[C@H]5CN(C(=O)C[N+](C)(C)C)C[C@H]5C4)c(Cl)c3)n2C)c(F)c1F [Example B19, [2-[(3aS,6aR)-5-[2-chloro-4-[[5-(2,3-difluoro-4-methoxy-phenyl)-1-methyl-imidazole-2-carbonyl]amino]benzoyl]-1,3,3a,4,6,6a-hexahydropyrrolo[3,4-c]pyrrol-2-yl]-2-oxo-ethyl]-trimethyl-ammonium; formate]	310
COc1ccc(-c2cnc(C(=O)Nc3ccc(C(=O)N4CCN(C(=O)C[N+](C)(C)C)CC4)c(Cl)c3)n2C)c(F)c1F [Example B20, [2-[4-[2-chloro-4-[[5-(2,3-difluoro-4-methoxy-phenyl)-1-methyl-imidazole-2-carbonyl]amino]benzoyl]piperazin-1-yl]-2-oxo-ethyl]-trimethyl-ammonium; formate]	76
Cn1c(-c2ccc(OCF)cc2F)cnc1C(=O)Nc1ccc(C(=O)N2CCN(C(=O)C[N+](C)(C)C)CC2)c(Cl)c1 [Example B22, [2-[4-[2-chloro-4-[5-[2-fluoro-4-(fluoromethoxy)phenyl]-1-methyl-imidazole-2-carbonyl]amino]benzoyl]piperazin-1-yl]-2-oxo-ethyl]-trimethyl-ammonium; formate]	170
CCc1cc(NC(=O)c2ncc(-c3ccc(OC)c(F)c3F)n2C)ccc1C(=O)N1CCC(C(=O)NCCOCC[N+](C)(C)C)CC1 [Example B23, 2-(2-(1-(4-(5-(2,3-difluoro-4-methoxyphenyl)-1-methyl-1H-imidazole-2-carboxamido)-2-ethylbenzoyl)piperidine-4-carboxamido)ethoxy)-N,N,N-trimethylethan-1-aminium iodide]	410
COc1ccc(-c2cnc(C(=O)Nc3ccc(C(=O)N4CCN(C(=O)[C@@H]5C[C@@H](O)C[N+]5(C)C)CC4)c(Cl)c3)n2C)c(F)c1F [Example B25, (2S,4R)-2-(4-(2-chloro-4-(5-(2,3-difluoro-4-methoxyphenyl)-1-methyl-1H-imidazole-2-carboxamido)benzoyl)piperazine-1-carbonyl)-4-hydroxy-1,1-dimethylpyrrolidin-1-ium formate]	120

Other lines, results leading:

IC90 [nM]	SMILES
120	COc1ccc(-c2cnc(C(=O)Nc3ccc(C(=O)N4CCC(NC(=O)C[N+](C)(C)CC(N)=O)CC4)c(Cl)c3)n2C)c(F)c1F [Example B5, (2-amino-2-oxo-ethyl)-[2-[1-[2-chloro-4-[5-(2,3-difluoro-4-methoxy-phenyl)-1-methyl-imidazole-2-carbonyl]amino]benzoyl]-4-piperidyl]amino]-2-oxo-ethyl]-dimethyl-ammonium; formate]
56	Cn1c(-c2ccc(OCC#N)c(F)c2F)cnc1C(=O)Nc1ccc(C(=O)N2CCN(C(=O)CC[N+](C)(C)C)CC2)c(Cl)c1 [Example B9, [3-[4-[2-chloro-4-[[5-[4-(cyanomethoxy)-2,3-difluoro-phenyl]-1-methyl-imidazole-2-carbonyl]amino]benzoyl]piperazin-1-yl]-3-oxo-propyl]-trimethyl-ammonium; iodide]
68	COc1ccc(-c2cnc(C(=O)Nc3ccc(C(=O)N4CCN(C(=O)CC5CC[N+](C)(C)C5)CC4)c(Cl)c3)n2C)c(F)c1F (stereo not drawn) [Example B13, N-[3-chloro-4-[4-[2-(1,1-dimethylpyrrolidin-1-ium-3-yl)acetyl]piperazine-1-carbonyl]phenyl]-5-(2,3-difluoro-4-methoxy-phenyl)-1-methyl-imidazole-2-carboxamide; formate]
140	Cn1c(-c2ccc(OC(F)F)c(F)c2)cnc1C(=O)Nc1ccc(C(=O)N2CCN(C(=O)C[N+](C)(C)C)CC2)c(Cl)c1 [Example B15, [2-[4-[2-chloro-4-[[5-[4-(difluoromethoxy)-3-fluoro-phenyl]-1-methyl-imidazole-2-carbonyl]amino]benzoyl]piperazin-1-yl]-2-oxo-ethyl]-trimethyl-ammonium; formate]
300	COc1ccc(-c2cnc(C(=O)Nc3ccc(C(=O)N4C[C@@H]5CN(C(=O)[C@@H]6CC[N+](C)(C)C6)C[C@@H]5C4)c(Cl)c3)n2C)c(F)c1F [Example B18, N-[4-[(3aS,6aR)-5-[(3R)-1,1-dimethylpyrrolidin-1-ium-3-carbonyl]-1,3,3a,4,6,6a-hexahydropyrrolo[3,4-c]pyrrole-2-carbonyl]-3-chloro-phenyl]-5-(2,3-difluoro-4-methoxy-phenyl)-1-methyl-imidazole-2-carboxamide; formate]
280	COc1ccc(-c2cnc(C(=O)Nc3ccc(C(=O)N4CCN(C(=O)C[N+](C)(C)C)CC4)c(C)c3)n2C)c(F)c1F [Example B21, [2-[4-[4-[5-(2,3-difluoro-4-methoxy-phenyl)-1-methyl-imidazole-2-carbonyl]amino]-2-methyl-benzoyl]piperazin-1-yl]-2-oxo-ethyl]-trimethyl-ammonium; formate]
120	Cn1c(-c2ccc(OCC#N)c(F)c2F)cnc1C(=O)Nc1ccc(C(=O)N2CCC(C(=O)N[C@H]3CC[N+](C)(C)C3)CC2)c(Cl)c1 [Example B24, (S)-3-(1-(2-chloro-4-(5-(4-(cyanomethoxy)-2,3-difluorophenyl)-1-methyl-1H-imidazole-2-carboxamido)benzoyl)piperidine-4-carboxamido)-1,1-dimethylpyrrolidin-1-ium formate]
